Measurements published in patent US20150335610A1, “PDK4 INHIBITOR AND USE THEREOF” (priority 2012, published 2015).

What was measured:
[1] = tested on: pyruvate dehydrogenase (PDH); assay type: in vivo, mouse; details: KIS7 2.8 mg/kg/day, DCA 56 mg/kg/day i.p., FIG. 10
[2] = background art, Non-Patent Literature 4; cited from earlier work
PDK4 = PDK4 (Homo sapiens, UniProt Q16654); experiment: PDK4-inhibitory activity by off-chip mobility shift assay (phosphorylation of PDH E1 subunit); assay type: biochemical; details: for IC50: phosphorylation of E1 subunit of PDH, 100 μM ATP, human recombinant PDK
Protocol: The PDK2 and PDK4-inhibitory activities were determined by measuring the phosphorylation of the E1 subunit of PDH in the presence of 100 μM ATP.
1) 5 μL of 4-fold concentrated solutions of test substances, 5 μL of 4-fold concentrated solutions of substrates (recombinant human PDH)/ATP/metal, and 10 μL of 2-fold concentrated solutions of human recombinant PDK were prepared with an assay buffer (20 mM HEPES, 0.01% Triton X-100, 2 mM DTT, pH 7.5) and then were mixed in the wells of a polypropylene 384-well plate, followed by reactions for five hours at room temperature.
2) Reactions were terminated by adding 60 μL of Termination Buffer (QuickScout Screening Assist MSA; Carna Biosciences, Inc.).
3) Peptide substrates and phosphorylated peptides in the reaction solutions were separated by LabChip3000 system (Caliper Life Science) and quantified (gel shift assay). The phosphorylation activity was assessed by product ratios (P/(P+S)) calculated from the peptide substrate peak height (S) and the phosphorylated peptide peak height (P).
4) The inhibitory percentage was calculated as follows.

HeLaS3 cells = experiment: Soft agar colony formation assay of cancer cells HeLaS3; assay type: cell-based; details: at 3 μM; eight days of culture; FIG. 14
Protocol: A conventional method was employed for a soft agar colony formation assay of cancer cells HeLaS3 (C. Oneyama et. al. Genes to Cells 2008; 13: 1 to 129). The HeLaS3 cells (4×10^4) were mixed with 3 ml of soft agar medium (Dulbecco modified Eagle's medium, 10% calf serum, 0.36% agar) and poured into a well of 6 cm-cell culture plate, which was added 5 ml of the base agar medium (Dulbecco modified Eagle's medium, 10% calf serum, 0.7% agar) in advance. After eight days of culture in a carbon dioxide gas incubator at 37° C., colonies were stained with MTT (3-(4,5-dimethylthiazol-2-yl)-2,5-diphenyltetrazolium bromide).

cells cancerated by Ras = experiment: Anchorage-independent sphere growth of cells cancerated by Ras; assay type: cell-based; details: at μM to 10 μM order
normal cells = experiment: Anchorage-independent growth of normal cells; assay type: cell-based; details: even at the order of several tens of μM

Chain of PDK4 (Q16654 whole entry): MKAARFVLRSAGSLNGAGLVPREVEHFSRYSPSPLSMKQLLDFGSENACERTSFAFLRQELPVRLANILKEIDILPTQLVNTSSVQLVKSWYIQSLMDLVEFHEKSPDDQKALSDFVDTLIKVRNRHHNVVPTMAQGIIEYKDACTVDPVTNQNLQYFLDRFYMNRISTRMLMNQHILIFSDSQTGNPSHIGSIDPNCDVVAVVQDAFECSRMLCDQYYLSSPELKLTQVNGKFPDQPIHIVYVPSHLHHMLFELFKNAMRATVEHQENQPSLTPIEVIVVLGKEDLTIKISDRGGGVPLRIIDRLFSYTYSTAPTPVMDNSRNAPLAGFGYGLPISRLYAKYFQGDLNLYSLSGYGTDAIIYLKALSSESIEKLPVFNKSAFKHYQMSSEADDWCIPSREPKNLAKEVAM

Row | SMILES | PDH enzyme activity in liver tissue [1] | side effects [2] | dose inhibiting PDK4 compared with DCA and Radicicol (PDK4; FIG. 4) | effect on PDK4 activity (activation or inhibition) (PDK4; comparison with known PDK inhibitory substances, FIG. 4) | IC50 (PDK4) [µM] | colony formation of HeLaS3 in soft agar (HeLaS3 cells) | anchorage-independent sphere growth of cells cancerated by Ras (cells cancerated by Ras) | anchorage-independent growth of normal cells (normal cells)
1 | O=C(O)C(Cl)Cl [DCA, dichloroacetic acid, reference compound] | equivalent PDH activities to non-infected mice | severe side effects such as neurotoxicity | – | – | – | – | – | –
2 | Cc1cc2c(C(C)C)c(O)c(O)c(C=O)c2c(O)c1-c1c(C)cc2c(C(C)C)c(O)c(O)c(C=O)c2c1O [KIS7, gossypol] | equivalent PDH activities to non-infected mice | – | far lower dose as compared with DCA and Radicicol | inhibited PDK4 | 4 | inhibited the colony formation | suppressed the anchorage-independent sphere growth | did not inhibit
3 | CC1(C)CCC2=C(O1)c1ccccc1C(=O)C2=O [KIS24, β-lapachone] | – | – | – | – | 3 | inhibited the colony formation | suppressed the anchorage-independent sphere growth | –
4 | Cc1cc2c(C(C)C)c(O)c(O)c(/C=N/c3ccccc3C(=O)O)c2c(O)c1-c1c(C)cc2c(C(C)C)c(O)c(O)c(/C=N/c3ccccc3C(=O)O)c2c1O [KIS28] | – | – | – | – | 13.2 | – | – | –
5 | C[C@H]1COC2=C1C(=O)C(=O)c1c2ccc2c1CCCC2(C)C [KIS37, cryptotanshinone] | – | – | – | – | 11 | inhibited the colony formation | suppressed the anchorage-independent sphere growth | did not inhibit
6 | Cc1cccc2c3c(ccc12)C1=C(C(=O)C3=O)[C@@H](C)CO1 [KIS116, dihydrotanshinone I] | – | – | – | – | < 4 | – | suppressed the anchorage-independent sphere growth | did not inhibit
